# Experimental data as given in paper PMC11850127 (The Journal of Biological Chemistry, 2025).
# “Also recorded” adds a separate entry of the source. Where two headings read alike, the source gives them in different places.
# Legend:
# [1] = biological target: T1, [V13′T]α10 nAChRs (Homo sapiens, UniProt Q9GZZ6, V280T); experiment: cell-based; format: cell-based, human (expressed in Xenopus laevis oocytes)
# [2] = system: α9α10 nAChRs; conditions: cited from earlier work
# [3] = system: homomeric α10 nAChRs; conditions: cited from earlier work
# [4] = system: human α10 nAChR; format: cell-based, human (expressed in Xenopus laevis oocytes)
# [5] = system: [V13′T]α10 nAChR; format: cell-based, human (expressed in Xenopus laevis oocytes)
# [6] = system: uninjected oocytes and oocytes injected with RIC-3 alone; format: cell-based, Xenopus laevis
# [7] = system: (α4)2(β2)3; conditions: cited from earlier work
# [8] = system: (α4)3(β2)2; conditions: cited from earlier work
# [9] = system: homomeric α9 nAChRs; conditions: cited from earlier work
# [10] = system: homomeric α9 nAChRs; conditions: cited from earlier work; remark: listed apart in the source
# [11] = biological target: T1, [V13′T]α10 nAChRs; format: cell-based, human (expressed in Xenopus laevis oocytes)
# [12] = system: human α10 nAChRs; format: cell-based, human (expressed in Xenopus laevis oocytes)
# [13] = system: homomeric α7 nAChRs; conditions: cited from earlier work
# [14] = system: α9 homomers; conditions: cited from earlier work
# [15] = system: muscle type nAChRs; conditions: cited from earlier work
# T1 sequence (Q9GZZ6 25-450 V280T limits assumed): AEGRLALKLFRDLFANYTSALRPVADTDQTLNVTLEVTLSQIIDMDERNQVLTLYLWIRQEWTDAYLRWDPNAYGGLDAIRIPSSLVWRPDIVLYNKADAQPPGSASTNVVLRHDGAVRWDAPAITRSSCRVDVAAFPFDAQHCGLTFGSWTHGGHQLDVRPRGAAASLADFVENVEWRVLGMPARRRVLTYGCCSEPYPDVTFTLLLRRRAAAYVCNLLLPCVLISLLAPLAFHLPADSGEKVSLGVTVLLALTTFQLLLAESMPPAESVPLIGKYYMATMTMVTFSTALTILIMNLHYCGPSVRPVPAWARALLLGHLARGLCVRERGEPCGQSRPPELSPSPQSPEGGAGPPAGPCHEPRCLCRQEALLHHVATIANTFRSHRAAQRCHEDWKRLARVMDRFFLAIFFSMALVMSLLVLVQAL
compound,measurement,setting,value
CN1CCC[C@H]1c1cccnc1 [nicotine],EC50,[1],350 µM
same,Hill slope,[1],0.59 (0.49–0.69)
same,agonist class,[1],partial agonist
same,efficacy relative to ACh,[1],lower efficacy than ACh
same,action of nicotine on wild-type α9α10 nAChRs,[2],antagonist
CCN1C[C@]2(COC(=O)c3ccccc3N3C(=O)C[C@H](C)C3=O)CC[C@H](OC)[C@@]34[C@@H]5C[C@H]6[C@H](OC)[C@@H]5[C@](O)(C[C@@H]6OC)[C@@](O)([C@@H](OC)[C@H]23)[C@@H]14 [methyllycaconitine],enabling of function/expression of homomeric α10 nAChRs,[3],can enable the function of homomeric α10 mammalian nAChRs
"CC(=O)OCC[N+](C)(C)C [ACh, Acetylcholine]","ACh-induced current, average amplitude",[4],17 nA
same,mean ACh-induced response,[4],−7 ± 6 nA
same,"response to ACh, α10 + RIC-3 versus α10 only",[4],significantly greater than those observed in α10-only injected oocytes; also recorded: significantly larger responses
same,range of ACh-induced response,[4]; n = 12,−2 to −24 nA
same,effect of absence of Ca^2+ on ACh-evoked currents,[5],did not substantially reduce ACh-evoked currents
same,mean ACh-induced response without actinomycin D,[5],−208 ± 227 nA
same,range of ACh-induced response,[5]; n = 12,−117 to −1120 nA
same,ACh-induced currents versus those induced by choline or nicotine,[1],significantly larger
same,Hill slope,[1],0.82 (0.67–1.01)
same,ACh-induced current in uninjected oocytes,[6]; n = 10,did not produce currents; also recorded: No ACh-induced currents were observed
same,ACh-induced current in oocytes injected with RIC-3 alone,[6]; n = 20,did not produce currents; also recorded: No ACh-induced currents were observed
same,affinity for acetylcholine,[7],high
same,affinity for acetylcholine,[8],low
same,ACh-induced currents,[9],small currents
same,ACh-induced currents,[10],small currents
dihydro-β-erythroidine,effect on ACh-evoked response,"[11]; 3 μM, 10 min, n = 5",no significant activity; also recorded: not significantly altered
α-bungarotoxin,antagonist sensitivity of α10 homomers,[12],blocked; also recorded: sensitive
same,block of ACh-evoked current,[12],completely blocked; also recorded: sensitive; also recorded: inhibited
same,Hill slope,[11],−1.17
same,IC50,[11],0.331 µM
same,block of α7 homomers by α-bungarotoxin,[13],blocks
same,block of α9α10 nAChRs by α-bungarotoxin,[2],sensitive; also recorded: blocks
same,sensitivity of α9 to α-bungarotoxin,[14],sensitive
same,block of muscle type nAChRs by α-bungarotoxin,[15],blocks
CN1[C@@H]2CC[C@H]1C[C@@H](OC(=O)C(CO)c1ccccc1)C2 (stereo partly drawn) [atropine],"ACh-evoked response, percent of baseline",[11],230 ± 44%
same,enhancement of ACh-evoked response,[11],230 ± 44%
same,onset and reversal of potentiation,[11],rapid onset and reversal
same,potentiation of ACh-evoked currents (in words),[11],"rapid, significant potentiation"
C[N+](C)(C)CCO [choline],EC50,[1],200 µM
same,Hill slope,[1],0.49 (0.41–0.60)
same,agonist class,[1],partial agonists
same,efficacy of choline relative to nicotine,[1],more efficacious than nicotine
same,efficacy relative to ACh,[1],lower efficacy than ACh
COc1cc2c(cc1OC)[C@@]13CCN4CC5=CCO[C@H]6CC(=O)N2[C@H]1[C@H]6[C@H]5C[C@H]43 [brucine],enabling of function/expression of homomeric α10 nAChRs,[3],can enable the function of homomeric α10 mammalian nAChRs
O=C1C[C@@H]2OCC=C3CN4CC[C@]56c7ccccc7N1[C@H]5[C@H]2[C@H]3C[C@H]46 [strychnine],"effect of strychnine on α10 nAChR function, higher concentrations",[12],block α10 nAChR function
same,"effect of strychnine on α10 plus RIC-3 oocytes, lower concentrations",[12],further substantial increase in expression
same,"ACh-evoked response, percent of baseline",[11],572 ± 131%
same,effect of strychnine at low concentrations,[11],enhanced [V13′T]α10 responses to ACh
same,effect of strychnine at the highest concentration,[11],inhibitory effect; also recorded: almost entirely inhibited
same,effect of strychnine on [V13′T]α10 + RIC-3 responses,[11],further enhanced
same,enhancement of ACh-evoked response,[11],572 ± 131%
same,maximum enhancement of ACh responses,[11],greater than 5 fold
same,potentiation of ACh-evoked currents (in words),[11],"rapid, significant potentiation"
same,strychnine concentration of maximum potentiation,[11],1 µM
same,block of homomeric α7 nAChRs by strychnine,[13],blocks
same,block of α9α10 nAChRs by strychnine,[2],blocks
same,block of homomeric α9 nAChRs by strychnine,[14],blocks
same,enabling of function/expression of homomeric α10 nAChRs,[3],enable the expression of human α10 nAChRs; also recorded: enable functional expression of wild-type α10 homomers in oocytes; also recorded: can enable the function of homomeric α10 mammalian nAChRs
